Measured values: ChEMBL document CHEMBL4007464, “Lead Development of Thiazolylsulfonamides with Carbonic Anhydrase Inhibitory Action” (J Med Chem, 2017)

Experiments:
Carbonic anhydrase 9 = Carbonic anhydrase 9 (Homo sapiens, UniProt Q16790); assay: Inhibition of recombinant human Carbonic anhydrase 9 assessed as reduction in CO2 hydration preincubated for 15 mins prior to testing measured for 10 to 100 secs by stopped-flow assay
Carbonic anhydrase 1 = Carbonic anhydrase 1 (Homo sapiens, UniProt P00915); assay: Inhibition of recombinant human Carbonic anhydrase 1 assessed as reduction in CO2 hydration preincubated for 15 mins prior to testing measured for 10 to 100 secs by stopped-flow assay
Chain of Carbonic anhydrase 1 (P00915 whole entry): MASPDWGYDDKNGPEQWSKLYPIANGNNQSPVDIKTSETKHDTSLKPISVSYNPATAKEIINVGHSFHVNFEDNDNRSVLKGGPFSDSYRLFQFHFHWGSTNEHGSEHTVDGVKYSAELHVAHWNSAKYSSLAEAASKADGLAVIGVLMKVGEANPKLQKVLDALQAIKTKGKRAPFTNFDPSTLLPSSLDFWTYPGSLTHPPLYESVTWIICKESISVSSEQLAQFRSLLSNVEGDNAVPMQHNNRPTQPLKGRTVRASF

Carbonic anhydrase 2 = Carbonic anhydrase 2 (Homo sapiens, UniProt P00918); assay: Inhibition of recombinant human Carbonic anhydrase 2 assessed as reduction in CO2 hydration preincubated for 15 mins prior to testing measured for 10 to 100 secs by stopped-flow assay
[1] = target: Carbonic anhydrase 5A, mitochondrial (Homo sapiens, UniProt P35218); assay: Inhibition of recombinant human Carbonic anhydrase 5A assessed as reduction in CO2 hydration preincubated for 15 mins prior to testing measured for 10 to 100 secs by stopped-flow assay
Chain of Carbonic anhydrase 5A, mitochondrial (P35218 whole entry): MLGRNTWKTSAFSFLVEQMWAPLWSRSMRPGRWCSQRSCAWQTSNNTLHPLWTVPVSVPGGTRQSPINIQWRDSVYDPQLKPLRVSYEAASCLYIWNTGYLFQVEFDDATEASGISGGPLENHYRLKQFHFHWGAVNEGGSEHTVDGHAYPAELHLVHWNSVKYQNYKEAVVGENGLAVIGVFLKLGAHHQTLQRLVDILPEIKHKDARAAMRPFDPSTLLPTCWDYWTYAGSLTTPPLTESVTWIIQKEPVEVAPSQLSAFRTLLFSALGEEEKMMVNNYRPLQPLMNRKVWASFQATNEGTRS

[2] = target: Carbonic anhydrase 5B, mitochondrial (Homo sapiens, UniProt Q9Y2D0); assay: Inhibition of recombinant human Carbonic anhydrase 5B assessed as reduction in CO2 hydration preincubated for 15 mins prior to testing measured for 10 to 100 secs by stopped-flow assay
Chain of Carbonic anhydrase 5B, mitochondrial (Q9Y2D0 whole entry): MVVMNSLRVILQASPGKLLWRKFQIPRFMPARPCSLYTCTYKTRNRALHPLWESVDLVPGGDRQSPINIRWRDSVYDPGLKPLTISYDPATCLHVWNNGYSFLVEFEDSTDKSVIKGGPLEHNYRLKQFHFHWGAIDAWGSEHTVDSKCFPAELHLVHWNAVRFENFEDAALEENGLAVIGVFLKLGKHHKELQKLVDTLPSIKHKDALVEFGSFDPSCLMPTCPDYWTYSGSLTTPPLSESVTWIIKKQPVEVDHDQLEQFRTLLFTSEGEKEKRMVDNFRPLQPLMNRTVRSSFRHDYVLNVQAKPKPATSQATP

Carbonic anhydrase 12 = Carbonic anhydrase 12 (Homo sapiens, UniProt O43570); assay: Inhibition of recombinant human Carbonic anhydrase 12 assessed as reduction in CO2 hydration preincubated for 15 mins prior to testing measured for 10 to 100 secs by stopped-flow assay
Chain of Carbonic anhydrase 12 (O43570 whole entry): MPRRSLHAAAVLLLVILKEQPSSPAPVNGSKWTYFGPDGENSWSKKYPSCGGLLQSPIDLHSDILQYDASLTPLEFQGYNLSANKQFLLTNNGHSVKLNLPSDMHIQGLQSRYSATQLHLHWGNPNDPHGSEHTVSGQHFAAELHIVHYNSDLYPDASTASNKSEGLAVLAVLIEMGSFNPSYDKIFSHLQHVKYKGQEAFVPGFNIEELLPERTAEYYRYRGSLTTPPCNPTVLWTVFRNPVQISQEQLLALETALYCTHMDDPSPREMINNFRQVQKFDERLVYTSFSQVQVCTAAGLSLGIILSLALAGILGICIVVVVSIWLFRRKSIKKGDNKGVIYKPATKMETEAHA

[3] = Inhibition of carbonic anhydrase in mouse whole blood assessed as reduction in CO2 hydration preincubated for 15 mins prior to testing measured for 10 to 100 secs by stopped-flow assay
[4] = Inhibition of carbonic anhydrase in rat whole blood assessed as reduction in CO2 hydration preincubated for 15 mins prior to testing measured for 10 to 100 secs by stopped-flow assay
[5] = Inhibition of carbonic anhydrase in human whole blood assessed as reduction in CO2 hydration preincubated for 15 mins prior to testing measured for 10 to 100 secs by stopped-flow assay

With `CNS(=O)(=O)c1sc(N(CCN(C)C)C(=O)Cc2ccc(-c3ccccc3)cc2)nc1C` as the compound, how does the Ki (Carbonic anhydrase 9) read?
Its Ki is 0.014 µM.

Which Ki (Carbonic anhydrase 9) does the source give for `Cc1nc(N(C)C(=O)Cc2ccc(-n3cccn3)cc2)sc1S(N)(=O)=O` here?
Its Ki is 0.035 µM.

For `Cc1nc(N(C(=O)Cc2ccc(-c3ccccc3)cc2)C2CC2)sc1S(N)(=O)=O`, which Ki (Carbonic anhydrase 9) is on record?
Its Ki is 0.001 µM.

Which Ki (Carbonic anhydrase 9) does the source give for `Cc1nc(N(C)C(=O)Cc2ccc(-c3ccccc3)cc2)sc1S(=O)(=O)NCCO` here?
Its Ki is 0.0445 µM.

For `CNS(=O)(=O)c1sc(N(C)C(=O)Cc2ccc(-c3ccccc3F)cc2)nc1C`, which Ki (Carbonic anhydrase 9) is on record?
The Ki was 0.0256 µM.

For `Cc1nc(N(C)C(=O)Cc2ccc(-c3ccccc3)cc2)sc1S(N)(=O)=O`, which Ki (Carbonic anhydrase 9) is on record?
The Ki was 0.0009 µM.

For `Cc1nc(N(C)C(=O)Cc2ccc(-c3cnccn3)cc2)sc1S(N)(=O)=O`, which Ki (Carbonic anhydrase 9) is on record?
The Ki was 0.0691 µM.

Which Ki (Carbonic anhydrase 9) does the source give for `Cc1nc(N(C)C(=O)Cc2ccc(-c3cc(F)ccc3F)cc2)sc1S(N)(=O)=O` here?
Its Ki is 0.0514 µM.

With `CNS(=O)(=O)c1sc(N(C)C(=O)Cc2ccc(-c3ccccc3)cc2)nc1C` as the compound, how does the Ki (Carbonic anhydrase 9) read?
Its Ki is 0.0408 µM.

Which Ki (Carbonic anhydrase 1) does the source give for `Cc1nc(N(C)C(=O)Cc2ccc(-c3ccccn3)cc2)sc1S(N)(=O)=O` [PRITELIVIR] here?
The Ki was 0.323 µM.

What about the Ki (Carbonic anhydrase 2) of the same compound?
Its Ki is 0.0128 µM.

What about the Ki [1] of the same compound?
The Ki was 0.474 µM.

What about the Ki [2] of the same compound?
Its Ki is 0.389 µM.

What about the Ki (Carbonic anhydrase 9) of the same compound?
The Ki was 0.081 µM.

What about the Ki (Carbonic anhydrase 12) of the same compound?
The Ki was 0.0772 µM.

And the IC50 [3]?
The IC50 was 0.134 µM.

What about the IC50 [4] of the same compound?
The IC50 was 0.115 µM.

What about the IC50 [5] of the same compound?
The IC50 was 0.0653 µM.

Which Ki (Carbonic anhydrase 9) does the source give for `CNS(=O)(=O)c1sc(N(C)C(=O)Cc2ccc(-c3ccccn3)cc2)nc1C` here?
Its Ki is 0.0247 µM.

Which Ki (Carbonic anhydrase 9) does the source give for `Cc1nc(N(C)C(=O)Cc2ccc(-c3cccc(F)c3)cc2)sc1S(N)(=O)=O` here?
The Ki was 0.0009 µM.

For `CCc1nc(N(C)C(=O)Cc2ccc(-c3ccccn3)cc2)sc1S(N)(=O)=O`, which Ki (Carbonic anhydrase 9) is on record?
The Ki was 0.0281 µM.

With `Cc1nc(N(C)C(=O)Cc2ccc(-c3cccc[n+]3C)cc2)sc1S(N)(=O)=O` as the compound, how does the Ki (Carbonic anhydrase 9) read?
The Ki was 0.261 µM.

For `COc1c(F)cccc1-c1ccc(CC(=O)N(C)c2nc(C)c(S(N)(=O)=O)s2)cc1`, which Ki (Carbonic anhydrase 9) is on record?
Its Ki is 0.0218 µM.

Which Ki (Carbonic anhydrase 9) does the source give for `CN(C(=O)Cc1ccc(-c2ccccn2)cc1)c1nc(CO)c(S(N)(=O)=O)s1` here?
The Ki was 0.0429 µM.

For `Cc1nc(N(CCN(C)C)C(=O)Cc2ccc(-c3ccccc3)cc2)sc1S(N)(=O)=O`, which Ki (Carbonic anhydrase 9) is on record?
The Ki was 0.022 µM.

Which Ki (Carbonic anhydrase 9) does the source give for `Cc1nc(N(C)C(=O)Cc2ccc(-c3ccccc3F)cc2)sc1S(N)(=O)=O` here?
Its Ki is 0.0101 µM.

For `Cc1nc(N(C)C(=O)Cc2ccc(-c3ccccn3)cc2)sc1S(N)(=O)=O`, which Ki (Carbonic anhydrase 1) is on record?
The Ki was 0.262 µM.

And the Ki (Carbonic anhydrase 2)?
Its Ki is 0.014 µM.

What about the Ki [1] of the same compound?
Its Ki is 0.816 µM.

And the Ki [2]?
Its Ki is 0.251 µM.

What about the Ki (Carbonic anhydrase 9) of the same compound?
The Ki was 0.464 µM.

And the Ki (Carbonic anhydrase 12)?
Its Ki is 0.0613 µM.
